This note sets out measurements from patent US20250257095A1, “METHOD FOR VISIBLE LIGHT-MEDIATED CHEMICAL MODIFICATION OF POLYPEPTIDE AND PROTEIN BASED ON CYSTEINE” (SHANGHAI JIAO TONG UNIVERSITY, priority 2022, published 2025).

The nature of the data set: Plasma stability test (incubation in plasma at 37° C., LC-MS/MS). The class given is in vitro ADME. To be noted: 2 h later; for metabolised at 2 h, 5 μg/mL: read-out: compound degraded in plasma. The method, then:
About 3 μL of a 500 μg/mL compound was taken and added to 297 μL of plasma. Incubation was conducted at 37° C. for 0 h to 3 h. 20 μL of a sample was collected at 1 min, 10 min, 30 min, 60 min, and 120 min. Then 100 μL of acetonitrile was added to precipitate proteins. Then 1 μL of a sample was collected and tested by liquid chromatography-tandem triple quadrupole mass spectrometer (LC-MS/MS) to determine a downward response of the compound in the plasma. The stability of the compound in the plasma could be quantified through plotting.

For the compound `COC(=O)[C@H](CCC(=O)c1ccccc1)NC(=O)[C@H](Cc1ccccc1)NC(=O)OC(C)(C)C` [DP-04], the “compound degraded in plasma” value is given as “not observed”.

`COC(=O)[C@H](CCC(=O)c1ccccc1)NC(=O)[C@H](CCCCNC(=O)OC(C)(C)C)NC(=O)OCc1ccccc1` [DP-11]: the “compound degraded in plasma” value is reported as “not observed”.

As for `CCN1C(=O)CC(SC[C@@H](NC(=O)[C@@H](Cc2ccccc2)NC(=O)OC(C)(C)C)C(=O)O)C1=O` (stereo partly shown) [compound 1], the metabolised at 2 h, 5 μg/mL is roughly 14%. As for `CCN1C(=O)CC(SC[C@@H](NC(=O)[C@@H](CCCCNC(=O)OC(C)(C)C)NC(=O)OCc2ccccc2)C(=O)O)C1=O` (stereo partly shown) [compound 2], the metabolised at 2 h, 5 μg/mL was roughly 1.5%.
